From US9999622B2, “Pyrazolothiazole compound and medicine comprising same” (NIPPON SHINYAKU CO., LTD., priority 2014, dated 2018)
Structures can show the parent of a compound that is named as a salt.

Assays:
Type in all cases: biochemical
JAK1 = target: T1, JAK1 (Homo sapiens, UniProt P23458); assay: JAK tyrosine kinase inhibitory activity in the presence of 1 mM ATP (ELISA), JAK1
T1 construct: purchased Carna Biosciences, Inc
Method in brief: (§1)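 Kinase reactions ran on streptavidin-coated plates in 15 mM Tris-HCl pH 7.5, 0.01% Tween-20, 1 mM DTT, 30 °C for 1 h. Enzyme was prediluted to 7.5 nM (JAK1) or 0.75 nM (JAK2, JAK3) before addition. Phosphotyrosine was detected with HRP anti-pTyr antibody and TMB at A450.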

JAK2 = target: T2, JAK2 (Homo sapiens, UniProt O60674); assay: JAK tyrosine kinase inhibitory activity in the presence of 1 mM ATP (ELISA), JAK2
T2 construct: purchased Carna Biosciences, Inc
T2 sequence (O60674 whole entry): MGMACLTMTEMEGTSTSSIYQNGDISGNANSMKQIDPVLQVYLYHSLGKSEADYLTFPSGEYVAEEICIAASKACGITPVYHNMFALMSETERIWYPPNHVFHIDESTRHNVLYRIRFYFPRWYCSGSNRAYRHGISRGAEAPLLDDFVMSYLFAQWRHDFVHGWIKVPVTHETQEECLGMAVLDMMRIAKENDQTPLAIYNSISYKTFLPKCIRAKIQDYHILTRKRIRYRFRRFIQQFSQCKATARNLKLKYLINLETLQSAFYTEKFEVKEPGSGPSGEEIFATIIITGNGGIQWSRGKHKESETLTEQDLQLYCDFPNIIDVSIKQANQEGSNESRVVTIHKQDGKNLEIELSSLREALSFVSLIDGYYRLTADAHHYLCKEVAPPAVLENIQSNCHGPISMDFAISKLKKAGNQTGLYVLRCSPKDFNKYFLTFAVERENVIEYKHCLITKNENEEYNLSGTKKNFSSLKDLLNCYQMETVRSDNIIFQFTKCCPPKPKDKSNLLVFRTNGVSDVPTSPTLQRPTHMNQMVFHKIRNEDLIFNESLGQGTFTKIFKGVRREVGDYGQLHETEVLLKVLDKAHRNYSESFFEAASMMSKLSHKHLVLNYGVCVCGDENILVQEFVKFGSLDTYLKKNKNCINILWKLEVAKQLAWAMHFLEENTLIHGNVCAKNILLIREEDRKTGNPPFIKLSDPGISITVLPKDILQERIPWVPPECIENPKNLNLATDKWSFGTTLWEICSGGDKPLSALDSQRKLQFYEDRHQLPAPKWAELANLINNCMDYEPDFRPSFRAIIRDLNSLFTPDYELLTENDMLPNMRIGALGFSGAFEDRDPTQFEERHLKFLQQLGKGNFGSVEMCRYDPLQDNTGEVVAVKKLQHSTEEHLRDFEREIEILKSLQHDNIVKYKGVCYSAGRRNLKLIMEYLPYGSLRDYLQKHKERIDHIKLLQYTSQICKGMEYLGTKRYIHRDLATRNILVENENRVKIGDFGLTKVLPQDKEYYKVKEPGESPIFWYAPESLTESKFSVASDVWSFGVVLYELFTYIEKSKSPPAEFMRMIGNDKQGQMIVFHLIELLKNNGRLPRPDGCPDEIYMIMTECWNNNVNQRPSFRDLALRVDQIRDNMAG
Method in brief: as §1

JAK3 = target: T3, JAK3 (Homo sapiens, UniProt P52333); assay: JAK tyrosine kinase inhibitory activity in the presence of 1 mM ATP (ELISA), JAK3
T3 construct: purchased Carna Biosciences, Inc
T3 sequence (P52333 1-1124): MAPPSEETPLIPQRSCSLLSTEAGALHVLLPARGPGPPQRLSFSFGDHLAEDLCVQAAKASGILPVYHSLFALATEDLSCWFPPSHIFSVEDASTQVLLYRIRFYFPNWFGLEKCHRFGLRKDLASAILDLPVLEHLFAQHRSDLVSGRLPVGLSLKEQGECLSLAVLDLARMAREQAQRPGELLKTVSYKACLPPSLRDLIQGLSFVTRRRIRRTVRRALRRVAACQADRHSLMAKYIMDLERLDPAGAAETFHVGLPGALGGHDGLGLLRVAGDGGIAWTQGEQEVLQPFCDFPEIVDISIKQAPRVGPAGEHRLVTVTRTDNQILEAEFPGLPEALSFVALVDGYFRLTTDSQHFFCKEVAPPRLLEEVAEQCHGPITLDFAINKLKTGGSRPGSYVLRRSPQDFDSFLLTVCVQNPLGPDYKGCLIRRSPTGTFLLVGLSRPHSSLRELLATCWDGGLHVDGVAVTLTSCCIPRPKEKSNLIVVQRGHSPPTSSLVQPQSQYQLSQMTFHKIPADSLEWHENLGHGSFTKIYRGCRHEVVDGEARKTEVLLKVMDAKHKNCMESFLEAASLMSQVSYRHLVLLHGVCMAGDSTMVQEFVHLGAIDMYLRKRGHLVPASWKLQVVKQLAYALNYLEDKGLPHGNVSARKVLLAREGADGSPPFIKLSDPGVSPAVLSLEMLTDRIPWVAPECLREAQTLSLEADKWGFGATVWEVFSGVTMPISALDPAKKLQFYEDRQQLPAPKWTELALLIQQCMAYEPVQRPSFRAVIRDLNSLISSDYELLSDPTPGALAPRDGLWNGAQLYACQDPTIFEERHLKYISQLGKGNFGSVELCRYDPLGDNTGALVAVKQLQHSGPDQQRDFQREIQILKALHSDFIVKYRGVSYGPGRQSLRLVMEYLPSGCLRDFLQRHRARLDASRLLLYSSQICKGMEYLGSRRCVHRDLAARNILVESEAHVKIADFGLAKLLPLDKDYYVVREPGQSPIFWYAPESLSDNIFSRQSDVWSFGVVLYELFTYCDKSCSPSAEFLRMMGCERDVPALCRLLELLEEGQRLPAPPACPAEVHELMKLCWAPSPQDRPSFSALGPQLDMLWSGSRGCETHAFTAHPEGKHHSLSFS
Method in brief: as §1

T1 sequence (P23458 whole entry): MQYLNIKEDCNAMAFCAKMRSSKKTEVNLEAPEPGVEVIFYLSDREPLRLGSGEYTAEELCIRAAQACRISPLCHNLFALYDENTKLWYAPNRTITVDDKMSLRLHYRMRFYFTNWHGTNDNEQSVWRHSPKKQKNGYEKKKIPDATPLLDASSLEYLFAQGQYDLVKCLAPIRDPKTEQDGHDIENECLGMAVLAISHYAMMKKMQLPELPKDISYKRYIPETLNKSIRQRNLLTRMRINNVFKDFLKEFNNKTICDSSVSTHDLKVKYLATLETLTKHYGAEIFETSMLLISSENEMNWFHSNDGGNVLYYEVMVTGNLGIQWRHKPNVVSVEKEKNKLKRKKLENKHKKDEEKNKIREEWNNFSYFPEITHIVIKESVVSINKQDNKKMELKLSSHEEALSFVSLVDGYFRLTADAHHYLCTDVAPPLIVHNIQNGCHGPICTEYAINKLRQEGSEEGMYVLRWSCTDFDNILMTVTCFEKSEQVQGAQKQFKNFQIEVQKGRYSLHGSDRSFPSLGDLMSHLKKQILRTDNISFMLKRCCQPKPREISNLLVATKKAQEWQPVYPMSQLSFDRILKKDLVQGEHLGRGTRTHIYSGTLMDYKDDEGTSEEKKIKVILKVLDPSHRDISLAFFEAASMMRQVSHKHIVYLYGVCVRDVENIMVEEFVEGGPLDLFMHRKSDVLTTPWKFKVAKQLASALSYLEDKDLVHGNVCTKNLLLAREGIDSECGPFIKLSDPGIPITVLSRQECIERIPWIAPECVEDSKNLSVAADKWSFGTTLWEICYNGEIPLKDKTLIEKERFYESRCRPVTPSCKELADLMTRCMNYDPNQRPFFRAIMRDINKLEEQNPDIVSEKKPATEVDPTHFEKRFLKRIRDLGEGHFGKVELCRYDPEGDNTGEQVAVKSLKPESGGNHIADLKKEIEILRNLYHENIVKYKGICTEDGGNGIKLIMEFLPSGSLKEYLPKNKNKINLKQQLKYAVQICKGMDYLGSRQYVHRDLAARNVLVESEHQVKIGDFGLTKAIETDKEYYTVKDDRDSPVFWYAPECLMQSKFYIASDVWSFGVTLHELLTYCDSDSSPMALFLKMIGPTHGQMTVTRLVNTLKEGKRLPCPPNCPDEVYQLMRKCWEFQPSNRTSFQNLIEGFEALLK

IC50 (JAK1) [nM] | IC50 (JAK2) [nM] | IC50 (JAK3) [nM] | Structure (SMILES)
690 | > 10000 | > 10000 | COC(=O)NC1CCN(C(=O)c2cc(NCC3CCN(C(=O)OC)CC3)nc(-c3cnn4ccsc34)n2)CC1 [Example 192, Methyl 4-([6-4-[(methoxycarbonyl)amino]piperidine-1-carbonyl-2-(pyrazolo[5,1-b][1,3]thiazol-7-yl)pyrimidin-4-yl]aminomethyl)piperidine-1-carboxylate]
120 | 8200 | 3800 | C[C@@H](Nc1cc(C(=O)N2CCC(NC(=O)c3ccc(F)cc3)CC2)nc(-c2cnn3ccsc23)n1)C(C)(C)C [Example 197, N-1-[6-[(2R)-3,3-dimethylbutan-2-yl]amino-2-(pyrazolo[5,1-b][1,3]thiazol-7-yl)pyrimidine-4-carbonyl]piperidin-4-yl-4-fluorobenzamide]
1300 | > 10000 | > 10000 | CC(=O)N1CCC(Nc2cc(C(=O)N3CCC(NC(=O)C4CC4)CC3)nc(-c3cnn4ccsc34)n2)CC1 [Example 188, N-(1-6-[(l-acetylpiperidin-4-yl)amino]-2-(pyrazolo[5,1-b][1,3]thiazol-7-yl)pyrimidine-4-carbonylpiperidin-4-yl)cyclopropanecarboxamide]
19 | 960 | 2000 | O=C(NC1CCN(C(=O)c2cc(NCC3(COC(F)F)CCC3)nc(-c3cnn4ccsc34)n2)CC1)C1CC1 [Example 9, N-[1-({6-[({1-[(Difluoromethoxy)methyl]cyclobutyl}methyl)amino]-2-(pyrazolo[5,1-b][1,3]thiazol-7-yl)pyrimidin-4-yl}carbonyl)piperidin-4-yl]cyclopropanecarboxamide]
110 | 2500 | 7200 | CC(C)(C)CNc1cc(C(=O)N2CCC(NC(=O)C3CC3)CC2)nc(-c2cnn3ccsc23)n1 [Example 15, N-[1-({6-[(2,2-Dimethylpropyl)amino]-2-(pyrazolo[5,1-b][1,3]thiazol-7-yl)pyrimidin-4-yl}carbonyl)piperidin-4-yl]cyclopropanecarboxamide]
43 | 2900 | 2100 | CC(C)OC(=O)NC1CCN(C(=O)c2cc(NC3(C)COC3)nc(-c3cnn4ccsc34)n2)CC1 [Example 139, Propan-2-yl [1-({6-[(3-methyloxetan-3-yl)amino]-2-(pyrazolo[5,1-b][1,3]thiazol-7-yl)pyrimidin-4-yl}carbonyl)piperidin-4-yl]carbamate]
600 | 1300 | 2800 | CCC(CC)Nc1cc(C(=O)N2CCC(NC(=O)COC)CC2)nc(-c2cnn3ccsc23)n1 [Example 106, 2-Methoxy-N-(1-{[6-(pentan-3-ylamino)-2-(pyrazolo[5,1-b][1,3]thiazol-7-yl)pyrimidin-4-yl]carbonyl}piperidin-4-yl)acetamide]
52 | 2400 | 3800 | O=C(NC1CCN(C(=O)c2cc(NCC3(COC(F)F)CC3)nc(-c3cnn4ccsc34)n2)CC1)C1CC1 [Example 8, N-[1-({6-[({1-[(Difluoromethoxy)methyl]cyclopropyl}methyl)amino]-2-(pyrazolo[5,1-b][1,3]thiazol-7-yl)pyrimidin-4-yl}carbonyl)piperidin-4-yl]cyclopropanecarboxamide]
380 | 1800 | > 10000 | C[C@H](Nc1cc(C(=O)N2CCC(NC(=O)c3cccs3)CC2)nc(-c2cnn3ccsc23)n1)C1CC1 [Example 32, N-(1-{[6-{[(1S)-1-Cyclopropylethyl]amino}-2-(pyrazolo[5,1-b][1,3]thiazol-7-yl)pyrimidin-4-yl]carbonyl}piperidin-4-yl)thiophene-2-carboxamide]
560 | > 10000 | > 10000 | COC(=O)NC1CCN(C(=O)c2cc(NC3CCCCC3)nc(-c3cnn4ccsc34)n2)CC1 [Example 180, Methyl 1-[6-(cyclohexylamino)-2-(pyrazolo[5,1-b][1,3]thiazol-7-yl)pyrimidine-4-carbonyl]piperidin-4-ylcarbamate]
70 | > 10000 | > 10000 | CCOC(=O)NC1CCN(C(=O)c2cc(N[C@@H]3CCN(C(=O)CC#N)C3)nc(-c3cnn4ccsc34)n2)CC1 [Example 203, Ethyl 1-[6-[(3R)-1-(cyanoacetyl)pyrrolidin-3-yl]amino-2-(pyrazolo[5,1-b][1,3]thiazol-7-yl)pyrimidine-4-carbonyl]piperidin-4-ylcarbamate]
4100 | > 10000 | > 10000 | O=C(NC1CCN(C(=O)c2cc(NCC3CNC3)nc(-c3cnn4ccsc34)n2)CC1)C1CC1 [Example 78, N-[1-({6-[(Azetidin-3-ylmethyl)amino]-2-(pyrazolo[5,1-b][1,3]thiazol-7-yl)pyrimidin-4-yl}carbonyl)piperidin-4-yl]cyclopropanecarboxamide]
620 | 1200 | 1800 | COCCOC(=O)NC1CCN(C(=O)c2cc(N[C@H](C)C(C)(C)C)nc(-c3cnn4ccsc34)n2)CC1 [Example 90, 2-Methoxyethyl (1-{[6-{[(2R)-3,3-dimethylbutan-2-yl]amino}-2-(pyrazolo[5,1-b][1,3]thiazol-7-yl)pyrimidin-4-yl]carbonyl}piperidin-4-yl)carbamate]
1900 | 2200 | 5400 | CC(C)(C)CNc1cc(C(=O)N2CCC(O)CC2)nc(-c2cnn3ccsc23)n1 [Example 94, {6-[(2,2-Dimethylpropyl)amino]-2-(pyrazolo[5,1-b][1,3]thiazol-7-yl)pyrimidin-4-yl}(4-hydroxypiperidin-1-yl)methanone]
110 | 620 | 2400 | C[C@H](Nc1cc(C(=O)N2CCC(NS(C)(=O)=O)CC2)nc(-c2cnn3ccsc23)n1)C1CC1 [Example 66, N-(1-{[6-{[(1S)-1-Cyclopropylethyl]amino}-2-(pyrazolo[5,1-b][1,3]thiazol-7-yl)pyrimidin-4-yl]carbonyl}piperidin-4-yl)methanesulfonamide]
1400 | > 10000 | 5700 | N#CC1(Nc2cc(C(=O)N3CCC(O)CC3)nc(-c3cnn4ccsc34)n2)CC1 [Example 117, 1-({6-[(4-Hydroxypiperidin-1-yl)carbonyl]-2-(pyrazolo[5,1-b][1,3]thiazol-7-yl)pyrimidin-4-yl}amino)cyclopropanecarbonitrile hydrochloride]
65 | 6600 | 1000 | CCCCC(=O)NC1CCN(C(=O)c2cc(N[C@@H](C)C3CC3)nc(-c3cnn4ccsc34)n2)CC1 [Example 190, N-1-[6-[(1S)-1-cyclopropylethyl]amino-2-(pyrazolo[5,1-b][1,3]thiazol-7-yl)pyrimidine-4-carbonyl]piperidin-4-ylpentanamide]
2900 | > 10000 | > 10000 | CCN(c1cc(C(=O)N2CCC(O)CC2)nc(-c2cnn3ccsc23)n1)C(C)(C)C [Example 133, {6-[tert-Butyl(ethyl)amino]-2-(pyrazolo[5,1-b][1,3]thiazol-7-yl)pyrimidin-4-yl}(4-hydroxypiperidin-1-yl)methanone]
150 | 2000 | 2500 | C[C@H](Nc1cc(C(=O)N2CCC(Nc3nccs3)CC2)nc(-c2cnn3ccsc23)n1)C1CC1 [Example 50, [6-{[(1S)-1-Cyclopropylethyl]amino}-2-(pyrazolo[5,1-b][1,3]thiazol-7-yl)pyrimidin-4-yl][4-(1,3-thiazol-2-ylamino)piperidin-1-yl]methanone]
510 | > 10000 | 9500 | COC(=O)NC1CCN(C(=O)c2cc(N[C@H]3CC[C@H](O)CC3)nc(-c3cnn4ccsc34)n2)CC1 [Example 178, Methyl (1-6-[(trans-4-hydroxycyclohexyl)amino]-2-(pyrazolo[5,1-b][1,3]thiazol-7-yl)pyrimidine-4-carbonylpiperidin-4-yl)carbamate]
